{
  "source": "ChEMBL document CHEMBL2412969",
  "about": "“Antihyperglycemic and antihyperlipidemic activities of 2-(4-[(2-hydroxybenzyl) amino]-phenyl amino-methyl)-phenol in STZ induced diabetic rats” (Eur J Med Chem, 2013)",
  "key": {"[1]": {"system": "Rattus norvegicus", "experiment": "Antihyperglycemic activity in Wistar albino rat streptozotocin-induced diabetic model assessed as reduction of blood glucose level at 20 mg/kg, po after 6 hrs (reference value: 372.5 +/- 15.6 mg/dl)", "assay_type": "functional"}, "[2]": {"system": "Rattus norvegicus", "experiment": "Antihyperglycemic activity in Wistar albino rat streptozotocin-induced diabetic model assessed as reduction of blood glucose level at 20 mg/kg, po after 5 hrs (reference value: 372.2 +/- 16.6 mg/dl)", "assay_type": "functional"}, "[3]": {"system": "Rattus norvegicus", "experiment": "Antihyperglycemic activity in Wistar albino rat streptozotocin-induced diabetic model assessed as reduction of blood glucose level at 20 mg/kg, po after 4 hrs (reference value: 373.5 +/- 15.6 mg/dl)", "assay_type": "functional"}, "[4]": {"system": "Rattus norvegicus", "experiment": "Antihyperglycemic activity in Wistar albino rat streptozotocin-induced diabetic model assessed as reduction of blood glucose level at 20 mg/kg, po after 3 hrs (reference value: 384.33 +/- 17.33 mg/dl)", "assay_type": "functional"}, "[5]": {"system": "Rattus norvegicus", "experiment": "Antihyperglycemic activity in Wistar albino rat streptozotocin-induced diabetic model assessed as reduction of blood glucose level at 20 mg/kg, po after 2 hrs (reference value: 386.66 +/- 17.5 mg/dl)", "assay_type": "functional"}, "[6]": {"system": "Rattus norvegicus", "experiment": "Antihyperglycemic activity in Wistar albino rat streptozotocin-induced diabetic model assessed as reduction of blood glucose level at 20 mg/kg, po after 1 hr (reference value: 389.16 +/- 19 mg/dl)", "assay_type": "functional"}, "[7]": {"system": "Rattus norvegicus", "experiment": "Antiatherosclerosis activity in Wistar albino rat streptozotocin-induced diabetic model assessed as protection from atherogenicity at 20 mg/kg, po qd for 30 days relative to control", "assay_type": "functional"}, "[8]": {"system": "Rattus norvegicus", "experiment": "Renalprotective activity in Wistar albino rat assessed as protection against streptozotocin-induced increase in creatinine level in blood at 20 mg/kg, po qd for 30 days", "assay_type": "functional"}, "[9]": {"system": "Rattus norvegicus", "experiment": "Renalprotective activity in Wistar albino rat assessed as protection against streptozotocin-induced increase in urea level in blood at 20 mg/kg, po qd for 30 days", "assay_type": "functional"}, "[10]": {"system": "Rattus norvegicus", "experiment": "Antihyperlipidemic activity in Wistar albino rat streptozotocin-induced diabetic model assessed as increase of serum HDL-cholesterol level at 20 mg/kg, po qd for 30 days", "assay_type": "functional, organism-based", "design": "dose 20 mg/kg"}, "[11]": {"system": "Rattus norvegicus", "experiment": "Antihyperlipidemic activity in Wistar albino rat streptozotocin-induced diabetic model assessed as reduction of serum VLDL-cholesterol level at 20 mg/kg, po qd for 30 days", "assay_type": "functional, organism-based", "design": "dose 20 mg/kg"}, "[12]": {"system": "Rattus norvegicus", "experiment": "Antihyperlipidemic activity in Wistar albino rat streptozotocin-induced diabetic model assessed as reduction of serum LDL level at 20 mg/kg, po qd for 30 days", "assay_type": "functional, organism-based", "design": "dose 20 mg/kg"}, "[13]": {"system": "Rattus norvegicus", "experiment": "Antihyperlipidemic activity in Wistar albino rat streptozotocin-induced diabetic model assessed as reduction of serum total cholesterol level at 20 mg/kg, po qd for 30 days", "assay_type": "functional, organism-based", "design": "dose 20 mg/kg"}, "[14]": {"system": "Rattus norvegicus", "experiment": "Antihyperlipidemic activity in Wistar albino rat streptozotocin-induced diabetic model assessed as reduction of serum triglyceride level at 20 mg/kg, po qd for 30 days", "assay_type": "functional, organism-based", "design": "dose 20 mg/kg"}, "[15]": {"system": "Rattus norvegicus", "experiment": "Antihyperglycemic activity in Wistar albino rat streptozotocin-induced diabetic model assessed as increase of body weight at 20 mg/kg, po qd measured on day 15 (reference value: -30.3%)", "assay_type": "functional"}, "[16]": {"system": "Rattus norvegicus", "experiment": "Antihyperglycemic activity in Wistar albino rat streptozotocin-induced diabetic model assessed as reduction of fasting blood glucose level at 20 mg/kg, po qd measured on day 30 relative to control", "assay_type": "functional"}, "[17]": {"system": "Rattus norvegicus", "experiment": "Antihyperglycemic activity in Wistar albino rat streptozotocin-induced diabetic model assessed as reduction of fasting blood glucose level at 20 mg/kg, po qd measured on day 15 (reference value: 404.2 +/- 29.15 mg/dl)", "assay_type": "functional"}, "[18]": {"system": "Rattus norvegicus", "experiment": "Antihyperglycemic activity in Wistar albino rat streptozotocin-induced diabetic model assessed as reduction of fasting blood glucose level at 20 mg/kg, po qd measured on day 1 (reference value: 416.4 +/- 24.2 mg/dl)", "assay_type": "functional"}},
  "note": "Active and inactive are the calls of the source. No cut-off for these calls is given here.",
  "data": [
    {"smiles": "COc1ccc(Cl)cc1C(=O)NCCc1ccc(S(=O)(=O)NC(=O)NC2CCCCC2)cc1", "note": "[GLYBURIDE]", "values": [
      {"measurement": "Activity", "setting": "[1]", "value": 206, "unit": "mg/dL"},
      {"measurement": "Activity", "setting": "[2]", "value": 188.1, "unit": "mg/dL"},
      {"measurement": "Activity", "setting": "[3]", "value": 197.6, "unit": "mg/dL"},
      {"measurement": "Activity", "setting": "[4]", "value": 213.3, "unit": "mg/dL"},
      {"measurement": "Activity", "setting": "[5]", "value": 237, "unit": "mg/dL"},
      {"measurement": "Activity", "setting": "[6]", "value": 243.5, "unit": "mg/dL"},
      {"measurement": "Activity", "setting": "[7]", "value": 55.5, "unit": "%"},
      {"measurement": "Activity", "setting": "[8]", "value": 0.425, "unit": "mg/dL"},
      {"measurement": "Activity", "setting": "[9]", "value": 49.1, "unit": "mg/dL"},
      {"measurement": "Activity", "setting": "[10]", "value": "Active"},
      {"measurement": "Activity", "setting": "[11]", "value": "Active"},
      {"measurement": "Activity", "setting": "[12]", "value": "Active"},
      {"measurement": "Activity", "setting": "[13]", "value": "Active"},
      {"measurement": "Activity", "setting": "[14]", "value": "Active"},
      {"measurement": "Activity", "setting": "[15]", "value": -10, "unit": "%"},
      {"measurement": "Activity", "setting": "[16]", "value": 188.1, "unit": "mg/dL"},
      {"measurement": "Activity", "setting": "[17]", "value": 204, "unit": "mg/dL"},
      {"measurement": "Activity", "setting": "[18]", "value": 356, "unit": "mg/dL"}
    ]}
  ]
}
